# Measured values: paper PMC11137008, “Cryo-EM analysis reveals human SID-1 transmembrane family member 1 dynamics underlying lipid hydrolytic activity” (Communications Biology, 2024)
# T1: human SIDT1 (hSIDT1) (Homo sapiens, UniProt Q9NXL6)
# T1 construct: full length; expressed in Expi293F cells by baculovirus; digitonin extraction, GDN micelle; N-glycosylated homodimer
# T1 sequence (Q9NXL6 20-827): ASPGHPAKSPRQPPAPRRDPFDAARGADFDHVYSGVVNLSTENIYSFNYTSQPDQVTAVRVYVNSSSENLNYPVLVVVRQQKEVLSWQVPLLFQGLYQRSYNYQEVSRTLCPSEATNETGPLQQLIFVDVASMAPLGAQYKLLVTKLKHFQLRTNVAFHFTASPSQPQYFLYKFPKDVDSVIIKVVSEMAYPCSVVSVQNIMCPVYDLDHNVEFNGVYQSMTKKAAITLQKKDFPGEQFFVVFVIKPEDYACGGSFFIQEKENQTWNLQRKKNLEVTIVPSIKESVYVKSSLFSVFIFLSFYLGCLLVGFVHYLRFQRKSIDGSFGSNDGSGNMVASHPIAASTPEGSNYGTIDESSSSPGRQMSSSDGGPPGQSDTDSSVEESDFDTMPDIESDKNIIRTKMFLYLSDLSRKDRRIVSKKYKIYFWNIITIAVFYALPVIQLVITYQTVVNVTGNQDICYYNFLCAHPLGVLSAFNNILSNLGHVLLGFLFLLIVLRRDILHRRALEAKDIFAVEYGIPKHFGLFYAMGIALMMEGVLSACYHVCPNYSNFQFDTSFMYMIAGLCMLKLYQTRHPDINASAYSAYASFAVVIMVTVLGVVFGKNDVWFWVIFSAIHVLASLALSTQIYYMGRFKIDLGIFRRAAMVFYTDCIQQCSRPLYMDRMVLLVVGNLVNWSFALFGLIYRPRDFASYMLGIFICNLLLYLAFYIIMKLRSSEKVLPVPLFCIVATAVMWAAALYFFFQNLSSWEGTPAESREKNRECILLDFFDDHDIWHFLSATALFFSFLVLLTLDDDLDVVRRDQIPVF
# T2: human SIDT1 full length WT (Homo sapiens, UniProt Q9NXL6 1-827)
# T2 sequence: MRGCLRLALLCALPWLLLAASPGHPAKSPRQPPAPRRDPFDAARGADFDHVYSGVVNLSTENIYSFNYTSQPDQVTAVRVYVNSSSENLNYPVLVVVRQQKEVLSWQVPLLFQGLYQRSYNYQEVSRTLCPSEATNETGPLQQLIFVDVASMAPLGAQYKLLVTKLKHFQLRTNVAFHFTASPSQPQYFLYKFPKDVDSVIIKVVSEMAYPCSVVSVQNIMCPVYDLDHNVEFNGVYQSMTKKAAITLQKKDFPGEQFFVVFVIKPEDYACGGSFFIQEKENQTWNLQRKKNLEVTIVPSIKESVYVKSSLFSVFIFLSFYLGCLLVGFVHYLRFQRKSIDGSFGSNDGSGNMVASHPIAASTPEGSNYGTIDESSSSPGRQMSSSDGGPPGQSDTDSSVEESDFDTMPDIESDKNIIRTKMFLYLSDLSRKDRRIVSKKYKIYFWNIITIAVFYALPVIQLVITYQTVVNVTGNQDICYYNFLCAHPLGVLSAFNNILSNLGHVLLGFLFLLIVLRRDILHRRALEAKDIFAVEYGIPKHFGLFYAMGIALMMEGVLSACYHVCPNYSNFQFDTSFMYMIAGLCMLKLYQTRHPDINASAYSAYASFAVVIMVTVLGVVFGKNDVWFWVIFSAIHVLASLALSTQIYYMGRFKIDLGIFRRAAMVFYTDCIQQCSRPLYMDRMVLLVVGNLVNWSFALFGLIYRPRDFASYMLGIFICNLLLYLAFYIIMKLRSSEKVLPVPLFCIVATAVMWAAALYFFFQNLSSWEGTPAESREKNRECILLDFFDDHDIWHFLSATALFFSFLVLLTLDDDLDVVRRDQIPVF
# B1: 46 bp dsRNA (dsRNA)
# RNA 1: AUUCUGCGGAUUAUUUGGCAAAGGAAGCAUUGACACAUGCGCCAAU
# RNA 2: AUUGGCGCAUGUGUCAAUGCUUCCUUUGCCAAAUAAUCCGCAGAAU
# Assays:
# human SIDT1 (hSIDT1) [1] = target: T1, human SIDT1 (hSIDT1); assay: TLC fluorescence ceramidase assay; type: biochemical; conditions: labelled compound; 10 mM methyl beta-cyclodextrin required (cholesterol depletion); pH 8.0, 0.01% GDN, 37 °C, 3 h
# human SIDT1 (hSIDT1) [2] = target: T1, human SIDT1 (hSIDT1); assay: cryo-EM structure, […] A; GC/MS of purified protein; type: binding; conditions: endogenous, co-purified; allosteric; TM5/TM6/TM7 pocket at intracellular side; two molecules per protomer described (CLR1, CLR2); GDN, pH 6.0
# [3] = target: T2, human SIDT1 full length WT; assay: EMSA; pH 7.0; EMSA: 1 or 2 uM 46 bp dsRNA with 0-8 uM hSIDT1 (mutants 1-5 uM, 1 uM dsRNA, pH 5.0), 4 C, 2 h; electrophoresis in Tris-acetate buffer at pH 4.0-7.0; protein stock in 20 mM MES pH 6.0, 150 mM NaCl, 0.01% GDN; conditions: protein: recombinant; tags: C-terminal TEV site, FLAG, His10; chain copies: 2; blunt (implied by 46 bp)
Molecule,TLC fluorescence ceramidase assay (human SIDT1 (hSIDT1) [1]),further results
CCCCCCCCCCCCC/C=C/[C@@H](O)[C@H](CO)NC(=O)CCCCCCCCCCCNc1ccc([N+](=O)[O-])c2nonc12 [C12 NBD ceramide],SIDT1 exhibited a ceramidase activity only in the presence of methyl β-cyclodextrin,
CCCCCCCCCCCCCCC[C@@H](O)[C@H](CO)NC(=O)CCCCCCCCCCCNc1ccc([N+](=O)[O-])c2nonc12 [C12 NBD dihydroceramide],SIDT1 also harbors a ceramidase activity to ceramide and dihydroceramide,
CC(C)CCC[C@@H](C)[C@H]1CC[C@H]2[C@@H]3CC=C4C[C@@H](O)CC[C@]4(C)[C@H]3CC[C@]12C [cholesterol],,"cryo-EM structure, 2.77 A; GC/MS of purified protein (human SIDT1 (hSIDT1) [2]): endogenous cholesterol is assumed to be co-purified with SIDT1"
B1,,binding result [3]: binds
